Results: patent US11286268B1, “EIF4E-inhibiting compounds and methods” (EFFECTOR THERAPEUTICS, INC., priority 2019, dated 2022)
Read-outs that look alike come from different tables or passages of the source.

Target: recombinant eIF4E (Homo sapiens (Human), UniProt P06730)
Test: Fluorescence polarization competition assay for eIF4E binding potency
How it was run: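 Competition of test compound against 20 nM EDA-m^7GDP-ATTO-550 for 75 nM recombinant eIF4E, pre-incubated 5 min, in 20 mM Tris pH 7.5, 100 mM NaCl, 1 mM DTT, 0.02% Tween-20, 1% DMSO. Equilibrated 30 min at room temperature, dark; fluorescence polarization read. IC50 from 8-point, 3-fold dilution series.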

[1] = inhibition of eIF4E/EDA-m7GDP-ATTO-550 binding, calculated IC50 values, Table 4B, read-out: IC50
[2] = fluorescence polarization competition, 75 nM recombinant eIF4E, 20 nM EDA-m7GDP-ATTO-550, IC50 class, read-out: elF4E FP
[3] = inhibition of eIF4E/EDA-m7GDP-ATTO-550 binding by 50%, Table 4B calculated values, read-out: IC50

recombinant eIF4E, sequence (P06730 whole entry): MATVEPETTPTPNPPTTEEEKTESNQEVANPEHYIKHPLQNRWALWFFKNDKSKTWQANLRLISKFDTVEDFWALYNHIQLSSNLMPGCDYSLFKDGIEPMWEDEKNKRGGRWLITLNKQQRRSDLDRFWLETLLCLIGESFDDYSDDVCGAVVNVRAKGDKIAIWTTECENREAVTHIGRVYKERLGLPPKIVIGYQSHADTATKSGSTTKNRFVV

Compound	IC50 [1] [µM]	IC50 [2] [µM]	IC50 [3] [µM]
Cc1nc2cnc(N3CCN([C@H]4C[C@@H]4C(F)(F)F)CC3)c(C#N)c2c(=O)n1CCOc1ccc(Cl)cc1-c1ccnc2c(C(=O)O)csc12 [compound 1642]	0.0245		
Cc1nc2cnc(C#CC3CCCN3C3CC3)c(C#N)c2c(=O)n1CCOc1ccc(Cl)cc1-c1ccnc2c(C(=O)O)csc12 (stereo not drawn) [compound 1344]	0.0183		
Cc1nc2cc(C(F)(F)F)cc(Cl)c2c(=O)n1CCOc1ccc(Cl)cc1-c1ccnc2c(C(=O)O)csc12 [compound 198]		0.05 to 1	0.124
Cc1cc(-c2cc(Cl)ccc2OCCn2c(C)nc3cc(Cl)c(N4CC(O)C4)c(C#N)c3c2=O)c2scc(C(=O)O)c2n1 [compound 698]		< 0.05	0.0034
Cc1nc2cc(F)c(CN(C)C)c(C#N)c2c(=O)n1CCOc1ccc(Cl)cc1-c1ccnc2c(C(=O)O)csc12 [compound 311]		0.05 to 1	0.0555
N#Cc1cc2c(=O)n(CCCc3ccc(Cl)cc3-c3cccc(C(=O)O)c3)cnc2cn1 [compound 42]		> 1	19.8
Cc1nc2cc(C#N)cc(C#N)c2c(=O)n1CCOc1ccc(Cl)cc1-c1ccnc2c(C(=O)O)csc12 [compound 212]		< 0.05	0.04
Cc1cc(-c2cc(Cl)ccc2OCCn2c(C)nc3cnc(N4CC[C@@H](O)C4)c(C#N)c3c2=O)c2scc(C(=O)O)c2n1 [compound 883]		< 0.05	0.0128
Cc1nc2cnc(C#N)cc2c(=O)n1CCOc1ccc(Cl)cc1-c1cccc(C(=O)O)c1 [compound 1995]	0.0593		
Cc1ccc(S(=O)(=O)NC(=O)c2csc3c(-c4cc(Cl)ccc4C#CCn4c(C)nc5cnc(N(C)C6CCN(CC(C)(F)F)CC6)c(C#N)c5c4=O)ccnc23)cn1 [compound 1680]	0.0233		
Cc1cc(-c2cc(Cl)ccc2OCCn2c(C)nc3cnc(-c4ccc(C)c(O)c4)c(C#N)c3c2=O)c2scc(C(=O)O)c2n1 [compound 1227]	0.0128	< 0.05	
Cc1nc2cnc(C3CC3)c(C#N)c2c(=O)n1CCOc1ccc(Cl)cc1Cc1cc(C(=O)O)cs1 [compound 970]		0.05 to 1	0.166
Cc1cc(-c2cc(Cl)ccc2OCCn2c(C)nc3cnc(OC4CN(C)C4)c(C#N)c3c2=O)c2sc(C)c(C(=O)O)c2n1 [compound 846]		< 0.05	0.0379
N#Cc1cccc2nc(C(F)F)n(CCOc3ccc(Cl)cc3-c3nccc4c(C(=O)O)csc34)c(=O)c12 [compound 189]		> 1	1.57
Cc1nc2cnc(C(F)(F)C3CCN(CC(F)F)CC3)c(C#N)c2c(=O)n1CC#Cc1ccc(Cl)cc1-c1ccnc2c(C(=O)O)csc12 [compound 1572]	0.02		
Cc1cc(-c2cc(Cl)ccc2OCCn2c(C)nc3cc(C(C)N(C)C)c(OC(F)F)c(C#N)c3c2=O)c2scc(C(=O)O)c2n1 (stereo not drawn) [compound 710]		< 0.05	0.0316
Cc1cc(-c2cc(Cl)ccc2OCCn2c(C)nc3cnc(N4CCN(C)CC4)c(C#N)c3c2=O)c2sccc2n1 [compound 1089]		0.05 to 1	0.618
Cn1nc(C(=O)O)cc1-c1cc(Cl)ccc1OCCn1cnc2cnc(C#N)cc2c1=O [compound 84]		> 1	1.25
Cc1nc2cnc(N(C)C3CCN(CC(F)(F)C(C)(F)F)CC3)c(C#N)c2c(=O)n1CC#Cc1ccc(Cl)cc1-c1ccnc2c(C(=O)O)csc12 [compound 1107]		< 0.05	0.0105
Cc1c(C(F)F)c2cc(C(F)(F)F)cc(C#N)c2c(=O)n1CCOc1ccc(Cl)cc1-c1ccnc2c(C(=O)O)csc12 [compound 269]		< 0.05	0.0156
Cc1sc2c(-c3cc(Cl)ccc3OCCn3c(C)nc4cc(C(F)(F)F)c(CC5CN(C)C5)c(C#N)c4c3=O)ccnc2c1C(=O)O [compound 1283]	0.0335		
N#Cc1cc2c(=O)n(CCOc3ccc(Cl)cc3-c3cc4c(c(C(=O)O)c3)OCO4)cnc2cn1 [compound 96]		> 1	2.1
Cc1cc(-c2cc(Cl)ccc2OCCn2c(C)nc3cnc(C4CC4)c(C#N)c3c2=O)c2scc(C(=O)O)c2n1 [compound 418]		< 0.05	0.00907
Cc1nc2cnc(N3CCN(CCCC(F)(F)F)CC3)c(C#N)c2c(=O)n1CC#Cc1ccc(Cl)cc1-c1ccnc2c(C(=O)O)csc12 [compound 1458]	0.0191		
Cc1c(CC#Cc2ccc(Cl)cc2-c2ccnc3c(C(=O)O)csc23)c(=O)c2c(C#N)cc(C(F)(F)F)cc2n1C [compound 665]		< 0.05	0.0165
Cc1cc(-c2cc(Cl)ccc2OCCn2c(C)nc3cc(C(F)(F)F)cc(O)c3c2=O)c2scc(C(=O)O)c2n1 [351a]			0.885
Cc1nc2cc(OC(F)F)c(C#N)c(C#N)c2c(=O)n1CCOc1ccc(Cl)cc1-c1ccnc2c(C(=O)O)csc12 [compound 538]		< 0.05	0.0223

Compound	IC50 [1] [µM]	IC50 [2] [µM]	IC50 [3] [µM]
Cc1nc2cnc(C3CC3)c(C#N)c2c(=O)n1CCOc1ccc(Cl)cc1Sc1nc(C(=O)O)cs1 [compound 922]		0.05 to 1	0.0894
N#Cc1cc2c(=O)n(C[C@@H]3C[C@H]3c3ccc(Cl)cc3-c3cccc(C(=O)O)c3)cnc2cn1 [compound 43]		> 1	> 10
Cc1nc2cnc(C3(C)CCN(C)CC3)c(C#N)c2c(=O)n1CCOc1ccc(Cl)cc1-c1ccnc2c(C(=O)O)csc12 [compound 1415]	0.0168		
Cc1nc2cnc(N(C)C3CCN(C4(C#N)CC4)CC3)c(C#N)c2c(=O)n1CC#Cc1ccc(Cl)cc1-c1ccnc2c(C(=O)O)csc12 [compound 1494]	0.0247		
Cc1cc(-c2cc(Cl)ccc2OCCn2c(C)nc3cnc(N4CCC(F)(F)CC4)c(C#N)c3c2=O)c2scc(C(=O)O)c2n1 [compound 1097]		< 0.05	0.0388
Cc1cc(-c2cc(Cl)ccc2OCCn2c(C)nc3c(C)ncc(C#N)c3c2=O)c2scc(C(O)C(F)(F)F)c2n1 (stereo not drawn) [compound 733]		> 1	1.73
Cc1nc(N2CCN(C)C3CC32)c(C#N)c2c(=O)n(CCOc3ccc(Cl)cc3-c3ccnc4c(C(=O)O)csc34)c(C)nc12 (stereo not drawn) [compound 603]		< 0.05	0.0117
Cc1nc2cnc(N(C)C3CCN(C4CC(F)(F)C4)CC3)c(C#N)c2c(=O)n1CC#Cc1ccc(Cl)cc1-c1ccnc2c(C(=O)NS(=O)(=O)C3CC(F)(F)C3)csc12 [compound 1833]	0.0148		
Cc1nc2cnc(N(C)C3CCN(C4CC(F)(F)C4)CC3)c(C#N)c2c(=O)n1CC#Cc1ccc(Cl)cc1-c1ccnc2c(C(=O)NS(=O)(=O)CC(F)F)csc12 [compound 1819]	0.0044		
Cc1nc2cnc(N(C)C3CCN(CC(F)(F)F)CC3)c(C#N)c2c(=O)n1CC#Cc1ccc(Cl)cc1-c1ccnc2c(C(=O)NS(C)(=O)=O)csc12 [compound 1501]	0.0205		
Cc1nc2cc(C(F)(F)F)c(CN3CCN(C)CC3)c(C#N)c2c(=O)n1CCOc1ccc(Cl)cc1-c1ccnc2ccsc12 [compound 1256]	0.0247		
Cc1nc2cc(F)c(F)c(C#N)c2c(=O)n1CCOc1cc(F)c(Cl)cc1-c1ccnc2c(C(=O)O)csc12 [compound 506]		0.05 to 1	0.0689
Cc1nc2cnc(N(C)C3CCN(CC(F)(F)C(F)F)CC3)c(C#N)c2c(=O)n1CC#Cc1ccc(Cl)cc1-c1ccnc2c(C(=O)NS(=O)(=O)c3ccncc3)csc12 [compound 1705]	0.0048		
Cc1cc(-c2cc(Cl)ccc2OCCn2c(C)nc3cc(Cl)c(N4CCC(F)(F)CC4)c(C#N)c3c2=O)c2scc(C(=O)O)c2n1 [compound 919]		< 0.05	0.0177
COC(=O)c1csc2c(-c3cc(Cl)ccc3OCCn3c(C)nc4cc(C(F)(F)F)c(N5CCN(C6CC6)CC5)c(C#N)c4c3=O)ccnc12 [compound 1206]	0.0325	< 0.05	
CCc1nc(C)c2nc(C)n(CCOc3ccc(Cl)cc3-c3ccnc4c(C(=O)O)csc34)c(=O)c2c1C#N [compound 851]		< 0.05	0.00602
CCN(c1ncc2nc(C)n(CC#Cc3ccc(Cl)cc3-c3ccnc4c(C(=O)NS(C)(=O)=O)csc34)c(=O)c2c1C#N)C1CCN(CC(F)(F)C(F)F)CC1 [compound 1607]	0.0146		
Cc1cc(-c2cc(Cl)ccc2OCCn2c(C)nc3cc(C(F)(F)F)c(-c4ccncc4)c(C#N)c3c2=O)c2scc(C(=O)O)c2n1 [compound 629]		< 0.05	0.00639
Cc1cc(-c2cc(Cl)ccc2OCCn2c(C)nc3c(C)nc(-c4ccccc4C)c(C#N)c3c2=O)c2scc(C(=O)O)c2n1 [compound 479]		< 0.05	
Cc1nc2cnc(N(C)C3CCN(C4CC4)CC3)c(C#N)c2c(=O)n1CC#Cc1ccc(Cl)cc1-c1ccnc2c(C(=O)O)csc12 [compound 1171]		< 0.05	0.013
Cc1nc2cnc(N(C)C3CCN(C4(C(F)F)COC4)CC3)c(C#N)c2c(=O)n1CC#Cc1ccc(Cl)cc1-c1ccnc2c(C(=O)NS(C)(=O)=O)csc12 [compound 1590]	0.036		
Cc1cc(-c2cc(Cl)ccc2OCCn2c(C)nc3cc(C(F)(F)F)c(-n4ccnc4)c(C#N)c3c2=O)c2scc(C(=O)O)c2n1 [compound 632]		< 0.05	0.012
N#Cc1c(C(F)F)ccc2ncn(CCOc3ccc(Cl)cc3-c3ccnc(C(=O)O)c3)c(=O)c12 [compound 161]		0.05 to 1	
O=C(O)c1cccc(-c2cc(Cl)ccc2OCCn2c(C(F)(F)F)nc3cnc(Cl)cc3c2=O)c1 [compound 2007]	> 300		
O=C(O)c1cccc(-c2cc(Cl)ccc2OCCn2ccc3ccncc3c2=O)c1 [compound 6]		> 1	7.39
Cc1nc2cnc(N3CC4CC3CN4C)c(C#N)c2c(=O)n1CCOc1ccc(Cl)cc1-c1ccnc2c(C(=O)O)csc12 (stereo not drawn) [compound 1645]	0.0232		
Cc1nc(N2CCN(C)CC2)c(C#N)c2c(=O)n(CCOc3ccc(Cl)cc3-c3ccnc4c(C(=O)O)csc34)c(C)nc12 [compound 448]		< 0.05	0.0042
